Assay results from US20220235011A1, “PHTHALAZINONE COMPOUNDS AND USE THEREOF” (ST PHARM CO., LTD., priority 2019, published 2022).

What follows are compounds tested against T1, Sirt6 (Homo sapiens, UniProt Q8N6T7) (assay: Measurement of Sirt6 Activity (CycLex Sirt6 Deacetylase Fluorometric Assay Kit)). Details: compound at 10 μM; fluorescence relative to the group without compound treatment (positive control group).
T1 construct: purchased CycLex CY-1156V2
Assay type: biochemical
In short: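 Recombinant Sirt6 with fluoro-labelled acetyl-lysine peptide, NAD and lysylendopeptidase developer, compound added from 10× stock in PBS; 1 h at room temperature. Fluorescence read at ex 490/em 530 nm; activation expressed as fluorescence ratio relative to enzyme without compound.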

T1 sequence (Q8N6T7 whole entry): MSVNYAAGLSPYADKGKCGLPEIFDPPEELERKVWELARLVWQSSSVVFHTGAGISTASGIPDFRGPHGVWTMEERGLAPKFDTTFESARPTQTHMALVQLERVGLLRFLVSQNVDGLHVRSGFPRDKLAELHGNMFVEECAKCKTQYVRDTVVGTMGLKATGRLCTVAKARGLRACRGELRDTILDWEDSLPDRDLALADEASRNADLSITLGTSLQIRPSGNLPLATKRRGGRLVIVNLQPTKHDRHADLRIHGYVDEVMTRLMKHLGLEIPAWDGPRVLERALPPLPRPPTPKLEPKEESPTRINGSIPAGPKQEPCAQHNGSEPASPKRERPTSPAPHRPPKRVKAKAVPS

Sirt6 Activity (% activity, 10 μM) | Compound
185.10 % activity | CCN(CC)S(=O)(=O)c1cccc(-c2nn(-c3ccc(F)cc3F)c(=O)c3ccccc23)c1 [Example 217, 3-(3-(2,4-Difluorophenyl)-4-oxo-3,4-dihydrophthalazin-1-yl)-N,N-diethylbenzenesulfonamide]
176.50 % activity | CCS(=O)(=O)N1CC=C(c2nn(-c3ccc(F)cc3F)c(=O)c3ccccc23)CC1 [Example 218, 2-(2,4-Difluorophenyl)-4-(1-(ethylsulfonyl)-1,2,3,6-tetrahydropyridin-4-yl)phthalazin-1(2H)-one]
114.60 % activity | CC(C)(C(=O)O)C1CN(c2nn(-c3ccc(F)cc3F)c(=O)c3ccccc23)CCN1 (stereo not drawn) [Example 219, 2-(4-(3-(2,4-Difluorophenyl)-4-oxo-3,4-dihydrophthalazin-1-yl)piperazin-2-yl)-2-methylpropanoic Acid]
125.80 % activity | CN1CCN(c2nn(-c3ccc(F)cc3F)c(=O)c3ccccc23)CC1C(C)(C)C(=O)O (stereo not drawn) [Example 220, 2-(4-(3-(2,4-Difluorophenyl)-4-oxo-3,4-dihydrophthalazin-1-yl)-1-methylpiperazin-2-yl)-2-methylpropanoic Acid]
125.50 % activity | CC(C)(C(=O)O)C1CN(c2nn(-c3ccc(F)cc3F)c(=O)c3ccccc23)CCO1 (stereo not drawn) [Example 221, 2-(4-(3-(2,4-Difluorophenyl)-4-oxo-3,4-dihydrophthalazin-1-yl)morpholin-2-yl)-2-methylpropanoic Acid]
145.64 % activity | N-(3-(4-Oxo-3-(tetrahydro-2H-pyran-4-yl)-3,4-dihydrophthalazin-1-yl)phenyl)ethanesulfonamide [Example 151]
